Assay [1] has as its target T1, rat cloned 5-HT7 receptor (Rattus norvegicus, UniProt P32305).
T1 construct: purchased PerkinElmer-NEN; host or cells: HEK-293
Description: Radioligand binding assay ([3H]-LSD) at rat cloned 5-HT7Rs. To be noted: for Ki: [3H]-LSD, rat recombinant 5-HT7R expressed in HEK-293 cells. On the procedure: Rat recombinant serotonin 5-HT7R expressed in HEK-293 cells were purchased from PerkinElmer-NEN (Betsville, Md., USA).
Radioligand Binding Assay at Rat Cloned 5-HT7Rs. Binding of [^3H]-LSD at rat cloned 5-HT7 receptor was performed according to a known method. In 1 mL of incubation buffer (50 mM Tris, 10 mM MgCl2 and 0.5 mM EDTA, pH 7.4) were suspended 30 μg of membranes, 2.5 nM [^3H]-LSD, the drugs or reference compound (six to nine concentrations). The samples were incubated for 60 min at 37° C. The incubation was stopped by rapid filtration on GF/A glass fiber filters (pre-soaked in 0.5% polyethylenimine for 30 min). The filters were washed with 3 ? 3 mL of ice-cold buffer (50 mM Tris, pH 7.4). Nonspecific binding was determined in the presence of 10 μM 5-CT. Approximately 90% of specific binding was determined under these conditions.

The target in a further assay is T2, 5-HT1A receptors (Rattus norvegicus, UniProt P19327).
T2 sequence (P19327 1-422): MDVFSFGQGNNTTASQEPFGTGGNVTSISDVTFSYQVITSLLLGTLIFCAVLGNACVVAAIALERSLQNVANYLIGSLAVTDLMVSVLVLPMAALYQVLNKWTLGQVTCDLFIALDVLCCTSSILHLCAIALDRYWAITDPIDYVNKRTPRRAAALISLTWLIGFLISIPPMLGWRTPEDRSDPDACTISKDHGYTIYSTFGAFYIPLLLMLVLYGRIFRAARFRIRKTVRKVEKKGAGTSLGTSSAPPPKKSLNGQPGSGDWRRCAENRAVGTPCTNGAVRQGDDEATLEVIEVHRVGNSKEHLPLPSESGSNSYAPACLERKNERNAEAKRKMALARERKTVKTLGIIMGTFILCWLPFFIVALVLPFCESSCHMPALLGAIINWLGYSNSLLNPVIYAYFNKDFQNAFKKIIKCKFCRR
The following applies: for Ki: read-out: Ki, nM 5-HT1A, [3H]-8-OH-DPAT, rat hippocampal membranes.

The target of a further assay is 5-HT7 receptor (Cavia porcellus, UniProt P50407). Description: Isolated guinea-pig ileum assay: relaxation of substance P-induced contraction. The following applies: for PA2 (vs SB-269970): in the presence of antagonist SB-269970 (0.1 μM-3 μM); for 5-HT7 intrinsic activity (in words): isolated guinea-pig ileum; for Emax: read-out: Maximal Effect %; for Schild plot: vs SB-269970, p value in parentheses.

The target in another assay is 5-HT2A receptors (Rattus norvegicus, UniProt P14842). Description: Radioligand binding assay ([3H]-ketanserin) at rat cortex membranes 5-HT2A receptors. To be noted: read-out: Ki, nM 5-HT2A; [3H]-ketanserin, rat cortex membranes.

Molecules are shown by their SMILES. “Also recorded” adds a separate entry of the source.

T1 sequence (P32305 whole entry): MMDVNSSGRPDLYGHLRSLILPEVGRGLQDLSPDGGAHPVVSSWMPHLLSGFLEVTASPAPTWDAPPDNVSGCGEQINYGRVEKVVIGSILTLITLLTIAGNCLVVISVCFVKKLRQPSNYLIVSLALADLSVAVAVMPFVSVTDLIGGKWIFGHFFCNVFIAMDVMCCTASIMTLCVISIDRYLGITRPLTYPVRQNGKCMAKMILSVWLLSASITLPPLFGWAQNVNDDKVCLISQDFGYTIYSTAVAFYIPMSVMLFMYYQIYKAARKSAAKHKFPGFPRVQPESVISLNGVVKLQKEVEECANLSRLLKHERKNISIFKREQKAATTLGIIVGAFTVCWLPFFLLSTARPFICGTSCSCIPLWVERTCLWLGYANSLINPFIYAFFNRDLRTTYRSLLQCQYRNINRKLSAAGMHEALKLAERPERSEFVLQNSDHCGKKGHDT
Chain of 5-HT7 receptor (P50407 whole entry): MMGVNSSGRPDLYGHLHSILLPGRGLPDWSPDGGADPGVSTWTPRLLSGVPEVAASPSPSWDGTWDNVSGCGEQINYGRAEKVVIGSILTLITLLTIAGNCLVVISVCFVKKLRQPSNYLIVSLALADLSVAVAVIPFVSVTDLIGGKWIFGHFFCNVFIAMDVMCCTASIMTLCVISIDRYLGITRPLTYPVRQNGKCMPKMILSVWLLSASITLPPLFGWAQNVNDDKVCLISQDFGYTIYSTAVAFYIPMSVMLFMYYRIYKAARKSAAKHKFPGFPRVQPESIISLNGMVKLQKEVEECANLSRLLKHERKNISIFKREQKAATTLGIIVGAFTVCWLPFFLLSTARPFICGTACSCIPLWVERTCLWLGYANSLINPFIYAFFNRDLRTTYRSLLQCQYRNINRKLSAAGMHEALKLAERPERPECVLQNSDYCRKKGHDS
Chain of 5-HT2A receptors (P14842 whole entry): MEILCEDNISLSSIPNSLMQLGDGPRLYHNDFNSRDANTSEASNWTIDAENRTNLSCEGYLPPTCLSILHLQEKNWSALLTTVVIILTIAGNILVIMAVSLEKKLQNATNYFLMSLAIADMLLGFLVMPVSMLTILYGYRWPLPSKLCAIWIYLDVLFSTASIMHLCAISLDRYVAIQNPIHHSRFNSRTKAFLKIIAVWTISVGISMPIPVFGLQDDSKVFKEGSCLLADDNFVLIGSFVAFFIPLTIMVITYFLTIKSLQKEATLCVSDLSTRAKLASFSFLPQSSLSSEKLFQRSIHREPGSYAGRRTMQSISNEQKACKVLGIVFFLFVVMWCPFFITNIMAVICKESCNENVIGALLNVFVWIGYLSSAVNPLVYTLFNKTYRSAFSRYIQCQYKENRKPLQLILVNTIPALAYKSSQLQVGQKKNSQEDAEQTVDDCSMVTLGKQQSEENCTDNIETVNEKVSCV
Description for 5-HT1A receptors: Radioligand Binding Assay at Rat Hippocampal Membranes 5-HT1A Receptors. Binding experiments were performed according to a known method. Rats were killed by decapitation, the brain was quickly removed, and the hippocampus was dissected. […] The homogenate was centrifuged at 48000 g for 15 min at 4° C. The supernatant was discarded, and the pellet was resuspended in 25 mL of buffer, then preincubated for 10 min at 37° C. The homogenate was centrifuged at 48000 g for 15 min at 4° C. The supernatant was discarded, and the final pellet was stored at −80° C. until used. […] For competitive inhibition experiments various concentrations of drugs studied were incubated. […] Samples were incubated at 37° C. for 20 min and then filtered on Whatman GF/B glass microfiber filters.
Statistical Analysis. […] The value for the inhibition constant, Ki, was calculated by using the Cheng-Prusoff equation.
Description for 5-HT2A receptors: Radioligand Binding Assay at Rat Cortex Membranes 5-HT2A Receptors. […] Rats were killed by decapitation, the brain was quickly removed, and the cortex was dissected. […] The homogenate was centrifuged at 2000 g for 10 min at 4° C. The supernatant was saved, and the pellet was resuspended in 25 mL of buffer. The surnatantes were collected and diluted 1:10 w/w with 10 mM Tris pH 7.4. The homogenate was centrifugated at 35000 g for 15 min at 4° C. The supernatant was discarded, and the final pellet was stored at −80° C. until used. […] For competitive inhibition experiments various concentrations of drugs studied were incubated. […] Samples were incubated at 37° C. for 15 min and then filtered on Whatman GF/B glass microfiber filters.
Statistical Analysis. […] PRISM® program. The value for the inhibition constant, Ki, was calculated by using the Cheng-Prusoff equation.

What is called Ki is the dissociation constant of the complex between target and ligand, obtained from inhibition or displacement. Turning to `NCCc1c[nH]c2ccc(C(N)=O)cc12` [5-CT, reference compound], in assay [1], the Ki stood at 0.51 ± 0.01 nM.
With `COc1ccccc1N1CCN(CCC(=O)NC2CCCc3c(OC)cccc32)CC1` (stereo not shown) [Compound 6], the “5-HT1A receptor affinity (in words)” value on 5-HT1A receptors was “moderate affinities”. Further, in assay [1], the “5-HT7R affinity (in words)” value is on record as “moderate affinities” and the Ki worked out at 269 ± 18 nM.
For `COc1ccccc1N1CCN(CCCC(=O)NC2CCCc3c(OC)cccc32)CC1` (stereo not shown) [Compound 7, N-(5-methoxy-1,2,3,4-tetrahydronaphthalen-1-yl)-4-(2-methoxyphenyl)-1-piperazinebutanamide], on 5-HT1A receptors, the “5-HT1A receptor affinity (in words)” value is “moderate affinities” and the Ki came to 254 ± 65 nM. In assay [1], the “5-HT7R affinity (in words)” value is given as “moderate affinities” and the Ki was 35 ± 3.2 nM.
In the case of `COc1ccccc1N1CCN(CCCCC(=O)NC2CCCc3c(OC)cccc32)CC1` (stereo not shown) [Compound 15], the results for the Ki (on 5-HT1A receptors; in assay [1]) were 54.4 ± 6.5 nM and 28.2 ± 4.2 nM, respectively.
On the same counts, the results for `COc1ccccc1N1CCN(CCCCCC(=O)NC2CCCc3c(OC)cccc32)CC1` (stereo not shown) [Compound 16] are 24.5 ± 1.8 nM and 20 ± 2.5 nM.
On the same counts, the results for `COc1ccc2c(c1)CCCC2NC(=O)CCCN1CCN(c2ccccc2OC)CC1` (stereo not shown) [Compound 17] are 257 ± 25 nM and 186 ± 40 nM.
On the same counts, the results for `COc1ccc2c(c1)CCCC2NC(=O)CCCCN1CCN(c2ccccc2OC)CC1` (stereo not shown) [Compound 18] are 23.2 ± 2.3 nM and 43.1 ± 4.8 nM.
Regarding `COc1ccc2c(c1)CCCC2NC(=O)CCCCCN1CCN(c2ccccc2OC)CC1` (stereo not shown) [Compound 19], the results for the inhibitory constant (Ki) (on 5-HT1A receptors; in assay [1]) were 55 ± 8 nM and 30 ± 3.15 nM, respectively.
On the same counts, the results for `COc1ccc2c(c1)C(NC(=O)CCCN1CCN(c3ccccc3OC)CC1)CCC2` (stereo not shown) [Compound 20] are 160 ± 12 nM and 129 ± 5 nM.
Consider `COc1ccc2c(c1)C(NC(=O)CCCCN1CCN(c3ccccc3OC)CC1)CCC2` (stereo not shown) [Compound 21], for which the inhibitory constant (Ki) on 5-HT1A receptors was 78.9 ± 6.3 nM; in assay [1], 38.4 ± 4.6 nM.
On the same counts, the results for `COc1ccc2c(c1)C(NC(=O)CCCCCN1CCN(c3ccccc3OC)CC1)CCC2` (stereo not shown) [Compound 22] are 39 ± 6.5 nM and 41 ± 11 nM.
On the same counts, the results for `COc1ccccc1N1CCN(CCCC(=O)NC2CCCc3cccc(OC)c32)CC1` (stereo not shown) [Compound 23, N-(8-Methoxy-1,2,3,4-tetrahydronaphthalen-1-yl)4-(2-methoxyphenyl)-1-piperazinebutanamide] are 441 ± 20 nM and 154 ± 35 nM.
On the same counts, the results for `COc1ccccc1N1CCN(CCCCC(=O)NC2CCCc3cccc(OC)c32)CC1` (stereo not shown) [Compound 24] are 72 ± 18 nM and 64 ± 12 nM.
Turning to `COc1ccccc1N1CCN(CCCCCC(=O)NC2CCCc3cccc(OC)c32)CC1` (stereo not shown) [Compound 25], the inhibition constant Ki on 5-HT1A receptors was found to be 30 ± 2.6 nM; in assay [1], 31.4 ± 3.5 nM.
On the same counts, the results for `COc1ccccc1N1CCN(CCCC(=O)NC2CCCc3ccccc32)CC1` (stereo not shown) [Compound 26, 4-(2-Methoxyphenyl)-N-(1,2,3,4-tetrahydronaphthalen-1-yl)-1-piperazinebutanamide] are 245 ± 20 nM and 92 ± 12 nM.
On the same counts, the results for `COc1ccccc1N1CCN(CCCCC(=O)NC2CCCc3ccccc32)CC1` (stereo not shown) [Compound 27, 4-(2-Methoxyphenyl)-N-(1,2,3,4-tetrahydronaphthalen-1-yl)-1-piperazinepentanamide] are 9 ± 0.7 nM and 6.05 ± 0.25 nM.
A word on the EC50: it is the midpoint of the concentration-response curve. Higher therefore signals a less potent agent. On to `COc1ccccc1N1CCN(CCCCCC(=O)NC2CCCc3ccccc32)CC1` (stereo not shown) [Compound 28, 4-(2-Methoxyphenyl)-N-(1,2,3,4-tetrahydronaphthalen-1-yl)-1-piperazinehexanamide], for which, at 5-HT7 receptor, the half-maximal effective concentration (EC50) was 6320 ± 200 nM, the “PA2 (vs SB-269970)” value is 8.02 ± 1.40, the “5-HT7 intrinsic activity (in words)” value is “Full agonists” and the Emax was 91%. Moreover, the Schild plot at 5-HT7 receptor is 1.0 (p < 0.0001). Also, the Ki on 5-HT1A receptors worked out at 8.6 ± 0.35 nM. Also, in assay [1], the “5-HT7R affinity (in words)” value is given as “high affinity” and the Ki was 6.64 ± 0.6 nM.
Regarding `N#Cc1ccccc1N1CCN(CCCCCC(=O)NC2CCCc3ccccc32)CC1` (stereo not shown) [Compound 33], the inhibition constant Ki was found to be 16.6 ± 1.4 nM at 5-HT1A receptors, 48.7 ± 2.5 nM in assay [1] and 700 ± 25 nM on 5-HT2A receptors. Besides, in assay [1], the “5-HT7R affinity (in words)” value is on record as “reasonably good 5-HT7R affinity”.
Consider `CC(=O)c1ccccc1N1CCN(CCCCCC(=O)NC2CCCc3ccccc32)CC1` (stereo not shown) [Compound 34, 4-(2-Acetylphenyl)-N-(1,2,3,4-tetrahydronaphthalen-1-yl)-1-piperazinehexanamide], for which, at 5-HT7 receptor, the EC50 amounted to 2460 ± 700 nM, the “PA2 (vs SB-269970)” value is reported as 7.60 ± 0.49, the “5-HT7 intrinsic activity (in words)” value is reported as “partial agonist” and the Emax came to 79%. Besides, the Schild plot on 5-HT7 receptor is given as 1.3 (p < 0.0001). The Ki at 5-HT1A receptors was determined as 3.8 ± 0.1 nM. Also, in assay [1], the “5-HT7R affinity (in words)” value is reported as “reasonably good 5-HT7R affinity; also recorded: high affinity” and the Ki worked out at 4.14 ± 0.8 nM. The Ki at 5-HT2A receptors came to 12200 ± 350 nM.
On to `COc1cc(Cl)ccc1N1CCN(CCCCCC(=O)NC2CCCc3ccccc32)CC1` (stereo not shown) [Compound 35], for which the inhibition constant Ki on 5-HT1A receptors is 332 ± 27 nM; in assay [1], 122 ± 14 nM; at 5-HT2A receptors it was 7170 ± 150 nM.
On the same counts, the results for `COc1ccc(OC)c(N2CCN(CCCCCC(=O)NC3CCCc4ccccc43)CC2)c1` (stereo not shown) [Compound 36] are 911 ± 23 nM, 70.3 ± 5.2 nM and 259 ± 20 nM.
On the same counts, the results for `COc1cccc(N2CCN(CCCCCC(=O)NC3CCCc4ccccc43)CC2)c1` (stereo not shown) [Compound 37] are 105 ± 12 nM, 119 ± 20 nM and 142 ± 20 nM.
With `COc1ccc(N2CCN(CCCCCC(=O)NC3CCCc4ccccc43)CC2)cc1` (stereo not shown) [Compound 38], in assay [1], the “5-HT7R affinity (in words)” value was “nearly devoid of 5-HT7R affinity” and the Ki amounted to 2100 ± 150 nM.
`N#Cc1cccc(N2CCN(CCCCCC(=O)NC3CCCc4ccccc43)CC2)c1` (stereo not shown) [Compound 39]: the Ki on 5-HT1A receptors turned out to be 291 ± 15 nM; in assay [1], 97.8 ± 5.6 nM; on 5-HT2A receptors, 909 ± 85 nM.
On to `N#Cc1ccc(N2CCN(CCCCCC(=O)NC3CCCc4ccccc43)CC2)cc1` (stereo not shown) [Compound 40], for which, in assay [1], the “5-HT7R affinity (in words)” value is “nearly devoid of 5-HT7R affinity” and the inhibitory constant (Ki) was found to be 1400 ± 120 nM.
On to `CC(=O)c1cccc(N2CCN(CCCCCC(=O)NC3CCCc4ccccc43)CC2)c1` (stereo not shown) [Compound 41], for which the results for the Ki (at 5-HT1A receptors; in assay [1]; at 5-HT2A receptors) were 676 ± 32 nM, 496 ± 24 nM and 1130 ± 200 nM, respectively.
On to `CC(=O)c1ccc(N2CCN(CCCCCC(=O)NC3CCCc4ccccc43)CC2)cc1` (stereo not shown) [Compound 42], for which, in assay [1], the “5-HT7R affinity (in words)” value was “nearly devoid of 5-HT7R affinity” and the Ki came to 2640 ± 130 nM.
As for `O=C(CCCCCN1CCN(c2ccccc2Cl)CC1)NC1CCCc2ccccc21` (stereo not shown) [Compound 47], the Ki on 5-HT1A receptors was 96 ± 8 nM; in assay [1], 40.1 ± 6.7 nM; at 5-HT2A receptors, 301 ± 12 nM.
For `O=C(CCCCCN1CCN(c2ccccc2[N+](=O)[O-])CC1)NC1CCCc2ccccc21` (stereo not shown) [Compound 48], the Ki at 5-HT1A receptors was 183 ± 15 nM; in assay [1], 63.3 ± 7.5 nM; on 5-HT2A receptors, 282 ± 35 nM.
On the same counts, the results for `O=C(CCCCCN1CCN(c2ccccc2)CC1)NC1CCCc2ccccc21` (stereo not shown) [Compound 50] are 128 ± 22 nM, 65.6 ± 4.7 nM and 77.8 ± 5.7 nM.

Values taken from patent publication US7488730B2, “N-(1,2,3,4-tetrahydronaphthalen-1-yl)-4-phenyl-1-piperazinealkylamide derivatives, and therapeutic use thereof as 5-HT7 receptor ligands” (Universita Degli Studi Di Bari, priority 2005, dated 2009).
